These results are taken from US9399646B2 (Genentech, Inc., priority 2010, dated 2016).

Molecules are shown by their SMILES. Where only a bound is given, the exact number is not on record here.

One test addresses T1, ER-α in MCF-7 cells (Homo sapiens, UniProt P03372).
T1 sequence (P03372 1-595): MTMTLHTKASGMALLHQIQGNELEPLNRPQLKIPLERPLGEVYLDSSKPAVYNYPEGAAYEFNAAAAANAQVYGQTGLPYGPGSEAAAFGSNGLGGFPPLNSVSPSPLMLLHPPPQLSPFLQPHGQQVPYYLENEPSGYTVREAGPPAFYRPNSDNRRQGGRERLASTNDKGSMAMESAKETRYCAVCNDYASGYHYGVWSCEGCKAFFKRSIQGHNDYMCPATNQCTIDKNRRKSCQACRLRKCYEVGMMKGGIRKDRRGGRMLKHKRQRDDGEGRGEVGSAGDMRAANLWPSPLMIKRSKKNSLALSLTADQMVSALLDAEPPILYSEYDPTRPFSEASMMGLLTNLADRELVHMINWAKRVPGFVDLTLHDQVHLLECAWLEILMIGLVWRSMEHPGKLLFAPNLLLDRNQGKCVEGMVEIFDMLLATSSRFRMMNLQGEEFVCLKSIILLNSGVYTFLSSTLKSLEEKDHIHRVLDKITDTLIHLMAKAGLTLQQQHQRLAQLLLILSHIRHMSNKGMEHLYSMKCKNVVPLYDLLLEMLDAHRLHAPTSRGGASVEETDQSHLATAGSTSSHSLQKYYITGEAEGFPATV
Kind of test: Breast cancer cell ER-α in cell western assay (SP1). Further details: endogenous in cells; host or cells: MCF-7. The conditions noted are these: 4 or 24 hr post compound addition; for Emax: MCF7, SP1 antibody, read-out: ER-α In Cell Western Assay (SP1) Max Response; for DC50: SP1 antibody, read-out: ER-α In Cell Western Assay (SP1) IC50. The class given is cell-based. The method, then: MCF-7 cells were adjusted to a concentration of 200,000 cells per mL in RPMI containing 10% charcoal-stripped FBS and 20 mM HEPES. 16 microliters of the cell suspension (3200 cells) was added to each well of a poly-D-lysine 384 well plate, and the cells were incubated overnight to allow the cells to adhere. The following day an eleven point, serial semilog dilution of each compound was added to the cells in 16 μL at a final concentration ranging from 0.3-0.000003 μM. At 4 or 24 hr post compound addition, the cells were fixed (10% formalin in PBS) for 20 minutes. Cells were permeablized in PBS 0.1% Triton and blocked with LICOR blocking buffer (50 μl/well, 90°). The wells were then incubated overnight at 4° C. with SP1 rabbit monoclonal Ab (Thermo Scientific) diluted 1:1000 in LICOR blocking buffer/0.1% Tween-20. Wells which were treated with blocking buffer with Tween but no antibody were used as a background control. Wells were washed with 0.1% Tween-20/PBS and then incubated in goat anti-rabbit IRDye™ 800CW (LICOR Inc.; 1:1000) and DRAQ5 DNA dye (1:2000 for 2 mM stock) diluted in LICOR blocking buffer containing 0.1% Tween-20 and 0.01% SDS for 60 minutes. Cells were washed (50 μl/well, 5′ each) in 0.1% Tween-20/PBS. Plates were scanned on a LICOR Odyssey infrared imaging system. Integrated intensities in the 800 nm channel and 700 nm channel were measured to determine levels of ER and DNA respectively. Percent ER levels were determined as follows: (Integrated intensity 800 nm sample/integrated intensity 700 nm sample)/(Integrated intensity 800 nm untreated cells/integrated intensity 700 nm untreated cells)×100=% ER levels.

A further test relates to MCF-7 cells. The experiment in a line: Breast cancer cell viability assay (CellTiter-Glo, 5 days). The class given is cell-based. The note with it: 5 days' compound exposure; for IC50: Homo sapiens, MCF7, 120 h. The procedure:
MCF-7 cells were adjusted to a concentration of 20,000 cells per mL in RPMI containing 10% FBS and 20 mM HEPES. 16 microliters of the cell suspension (320 cells) was added to each well of a 384 well plate, and the cells were incubated overnight to allow the cells to adhere. The following day an eleven point, serial semilog dilution of each compound was added to the cells in 16 μL at a final concentration ranging from 0.3-0.000003 μM. After 5 days' compound exposure, 16 μL of CellTiter-GLo (Promega, Madison Wis.) was added to the cells the relative luminescence units (RLUs) of each well was determined CellTiter-Glo added to 32 μL of medium without cells was used to obtain a background value. The Percent viability of each sample was determined as follows: (RLU sample-RLU background/RLU untreated cells-RLU background)×100=% viability.
(Cellular ATP, detected with luciferase, serves as a proxy for viable cell number.)

By IC50 is commonly meant the midpoint of a concentration-inhibition curve.

Take `CC/C(=C(/c1ccc(/C=C/C(=O)O)cc1)c1ccc2c(c1)CCC(=O)N2)c1ccccc1` [Compound 100, (E)-3-(4-((E)-1-(2-Oxo-1,2,3,4-tetrahydroquinolin-6-yl)-2-phenylbut-1-en-1-yl)phenyl)acrylic acid]: on ER-α in MCF-7 cells, the Emax was no less than 40% and the DC50 is greater than 100 nM. In the test with MCF-7 cells, the “MCF7 Viability Assay Max Response” value was “++ (++ = a single % value ≧ 40%)” and the IC50 was greater than 100 nM.

Take `CC/C(=C(/c1ccc(/C=C/C(=O)O)cc1)c1ccc2[nH]ncc2c1)c1cccc(-c2cccnc2)c1` [Compound 393, (E)-3-(4-((E)-1-(1H-Indazol-5-yl)-2-(3-(pyridin-3-yl)phenyl)but-1-en-1-yl)phenyl)acrylic acid]: on ER-α in MCF-7 cells, the Emax is no less than 40% and the DC50 is no more than 100 nM. Also, in the test with MCF-7 cells, the “MCF7 Viability Assay Max Response” value is “++ (++ = a single % value ≧ 40%)” and the IC50 was no more than 100 nM.

On to `CC/C(=C(/c1ccc(/C=C/C(=O)O)cc1)c1ccc2[nH]ncc2c1)c1cccc(Oc2cncnc2)c1` [Compound 369, (E)-3-(4-((E)-1-(1H-Indazol-5-yl)-2-(3-(pyrimidin-5-yloxy)phenyl)but-1-en-1-yl)phenyl)acrylic acid], for which, at ER-α in MCF-7 cells, the Emax is no less than 40% and the DC50 was no more than 100 nM. Besides, in the test with MCF-7 cells, the “MCF7 Viability Assay Max Response” value is “++ (++ = a single % value ≧ 40%)” and the IC50 is greater than 100 nM.

For the molecule `CC/C(=C(/c1ccc(/C=C/C(=O)O)cc1)c1ccc2[nH]ncc2c1)c1ccc(OCCO)cc1` [Compound 360, (E)-3-(4-((E)-2-(4-(2-Hydroxyethoxy)phenyl)-1-(1H-indazol-5-yl)but-1-en-1-yl)phenyl)acrylic acid], on ER-α in MCF-7 cells, the Emax was no less than 40% and the DC50 is greater than 100 nM. Besides, in the test with MCF-7 cells, the “MCF7 Viability Assay Max Response” value is reported as “++ (++ = a single % value ≧ 40%)” and the IC50 is greater than 100 nM.

`CC/C(=C(/c1ccc(/C=C/C(=O)O)cc1)c1coc2c(O)cccc12)c1ccc(F)cc1Cl` [Compound 450, (E)-3-(4-((E)-2-(2-Chloro-4-fluorophenyl)-1-(7-hydroxybenzofuran-3-yl)but-1-en-1-yl)phenyl)acrylic acid]: on ER-α in MCF-7 cells, the Emax was no less than 40% and the DC50 was no more than 100 nM. For the same molecule, in the test with MCF-7 cells, the “MCF7 Viability Assay Max Response” value is “++ (++ = a single % value ≧ 40%)” and the IC50 was no more than 100 nM.

As for `CC/C(=C(/c1ccc(/C=C/c2nn[nH]n2)cc1)c1ccc2[nH]ncc2c1)c1ccccc1Cl` [Compound 443, 5-((E)-1-(4-((E)-2-(2H-Tetrazol-5-yl)vinyl)phenyl)-2-(2-chlorophenyl)but-1-en-1-yl)-1H-indazole], on ER-α in MCF-7 cells, the Emax was no less than 40% and the DC50 was no more than 100 nM. In addition, in the test with MCF-7 cells, the “MCF7 Viability Assay Max Response” value is “++ (++ = a single % value ≧ 40%)” and the IC50 is no more than 100 nM.

For the molecule `CC/C(=C(/c1ccc(-c2cc(O)no2)cc1)c1ccc2[nH]ncc2c1)c1ccc(F)cc1Cl` [Compound 333, (E)-5-(4-(2-(2-Chloro-4-fluorophenyl)-1-(1H-indazol-5-yl)but-1-en-1-yl)phenyl)isoxazol-3-ol], on ER-α in MCF-7 cells, the Emax was no less than 40% and the DC50 is no more than 100 nM. Besides, in the test on MCF-7 cells, the “MCF7 Viability Assay Max Response” value is on record as “++ (++ = a single % value ≧ 40%)” and the half-maximal inhibitory concentration (IC50) is no more than 100 nM.

Take `CC/C(=C(/c1ccc(/C=C/C(=O)O)cc1)c1ccc2[nH]ncc2c1)c1ccc(-c2cnn(C)c2)cc1` [Compound 384, (E)-3-(4-((E)-1-(1H-Indazol-5-yl)-2-(4-(1-methyl-1H-pyrazol-4-yl)phenyl)but-1-en-1-yl)phenyl)acrylic acid]: at ER-α in MCF-7 cells, the Emax was no less than 40% and the DC50 is greater than 100 nM. In the test with MCF-7 cells, the “MCF7 Viability Assay Max Response” value is “++ (++ = a single % value ≧ 40%)” and the IC50 was greater than 100 nM.

On to `CC/C(=C(/c1ccc(/C=C/C(=O)O)cc1)c1ccc2[nH]ncc2c1)c1ccc(N(C)c2ccccc2)cc1` [Compound 396, (E)-3-(4-((E)-1-(1H-Indazol-5-yl)-2-(4-(methyl(phenyl)amino)phenyl)but-1-en-1-yl)phenyl)acrylic acid & (E)-3-(4-((Z)-1-(1H-indazol-5-yl)-2-(4-(methyl(phenyl)amino)phenyl)but-1-en-1-yl)phenyl)acrylic acid (1:1 Mixture)], for which, at ER-α in MCF-7 cells, the Emax is no less than 40% and the DC50 is greater than 100 nM. Besides, in the test on MCF-7 cells, the “MCF7 Viability Assay Max Response” value was “++ (++ = a single % value ≧ 40%)” and the IC50 is greater than 100 nM.

Turning to `CC/C(=C(/c1ccc(/C=C/C(=O)O)cc1)c1ccn2ncnc2c1)c1ccccc1` [Compound 136, (E)-3-(4-((E)-1-([1,2,4]Triazolo[1,5-a]pyridin-7-yl)-2-phenylbut-1-en-1-yl)phenyl)acrylic acid], on ER-α in MCF-7 cells, the Emax is no less than 40% and the DC50 is greater than 100 nM. For the same molecule, in the test with MCF-7 cells, the “MCF7 Viability Assay Max Response” value is on record as “+ (+ = a single % value < 40%)” and the IC50 was greater than 100 nM.

For the molecule `O=C(O)/C=C/c1ccc(/C(=C(\c2ccccc2Cl)C2CC2)c2cccc3[nH]ncc23)cc1` [Compound 71, (E)-3-(4-((E)-2-(2-Chlorophenyl)-2-cyclopropyl-1-(1H-indazol-4-yl)vinyl)phenyl)acrylic acid], on ER-α in MCF-7 cells, the Emax is no less than 40% and the DC50 is no more than 100 nM. Moreover, in the test on MCF-7 cells, the “MCF7 Viability Assay Max Response” value is on record as “++ (++ = a single % value ≧ 40%)” and the IC50 is no more than 100 nM.

For the molecule `CC/C(=C(/c1ccc(/C=C/c2nn[nH]n2)cc1)c1ccc2scnc2c1)c1ccc(F)cc1Cl` [Compound 445, 5-((E)-1-(4-((E)-2-(2H-Tetrazol-5-yl)vinyl)phenyl)-2-(2-chloro-4-fluorophenyl)but-1-en-1-yl)benzo[d]thiazole], at ER-α in MCF-7 cells, the Emax is no less than 40% and the DC50 is no more than 100 nM. For the same molecule, in the test on MCF-7 cells, the “MCF7 Viability Assay Max Response” value is “++ (++ = a single % value ≧ 40%)” and the IC50 is no more than 100 nM.

For the molecule `O=C(O)/C=C/c1ccc(/C(=C(\c2ccncc2Cl)C2CCC2)c2ccc3[nH]nc(F)c3c2)cc1` [Compound 307, (E)-3-(4-((E)-2-(3-Chloropyridin-4-yl)-2-cyclobutyl-1-(3-fluoro-1H-indazol-5-yl)vinyl)phenyl)acrylic acid], at ER-α in MCF-7 cells, the Emax is no less than 40% and the DC50 was no more than 100 nM. Further, in the test with MCF-7 cells, the “MCF7 Viability Assay Max Response” value is listed as “++ (++ = a single % value ≧ 40%)” and the half-maximal inhibitory concentration (IC50) was no more than 100 nM.

On to `CC/C(=C(/c1ccc(/C=C/C(=O)O)cc1)c1ccc2[nH]ncc2c1)c1ccc(OCCCOC)cc1` [Compound 340, (E)-3-(4-((E)-1-(1H-Indazol-5-yl)-2-(4-(3-methoxypropoxy)phenyl)but-1-en-1-yl)phenyl)acrylic acid], for which, on ER-α in MCF-7 cells, the Emax was no less than 40% and the DC50 is no more than 100 nM. For the same molecule, in the test on MCF-7 cells, the “MCF7 Viability Assay Max Response” value was “++ (++ = a single % value ≧ 40%)” and the IC50 was no more than 100 nM.

Take `CC/C(=C(/c1ccc(/C=C/C(=O)O)cc1)c1ccc2[nH]ncc2c1)c1cccc(Oc2ccc(C)nc2)c1` [Compound 382, (E)-3-(4-((E)-1-(1H-Indazol-5-yl)-2-(3-((6-methylpyridin-3-yl)oxy)phenyl)but-1-en-1-yl)phenyl)acrylic acid]: on ER-α in MCF-7 cells, the Emax is no less than 40% and the DC50 is no more than 100 nM. For the same molecule, in the test with MCF-7 cells, the “MCF7 Viability Assay Max Response” value is given as “++ (++ = a single % value ≧ 40%)” and the IC50 is no more than 100 nM.
